Values after ≈ are worked out from the molar mass of the structure shown. Where two headings read alike, the source gives them in different places.
Experiments:
Assay type in all cases: cell-based
[1] = system: Staphylococcus aureus 100 (ATCC 29213); assay: MIC, broth microdilution, SA 100; details: Staphylococcus aureus, ATCC29213, class symbols, read-out: MIC SA 100
Procedure: (§1) Antibacterial activity in vitro is investigated by broth microdilution method in Meuller-Hinton broth as recommended by NCCLS. All strains tested are clinical isolates either sensitive or resistant to natural glycopeptides. MIC values were determined using the CLSI-recommended broth microdilution procedure (Clinical and Laboratory Standards Institute, Methods for Dilution Antimicrobial Susceptibility Tests for Bacteria That Grow Aerobically; Approved Standard-Seventh Edition.). Automated liquid handlers (Multidrop 384, Labsystems, Helsinki, Finland; Biomek 2000 and Multimek 96, Beckman Coulter, Fullerton Calif.) were used to conduct serial dilutions and liquid transfers. The MIC value for vancomycin is given for comparison. The abbreviations for organisms tested are as follow: SA 100—Staphylococcus aureus 100 (ATCC 29213); SA 757—Staphylococcus aureus 757 (MRSA); SA 2012—Staphylococcus aureus 2012 (VISA); SE 835—Staphylococcus epidermidis 835; SE 831—Staphylococcus epidermidis 831 (MRSE); EFc 101—Enterococcus faecalis 101 (ATCC 29212); EFc 848—Enterococcus faecalis 848 (VRE, Van A); EFcm 800—Enterococcus faecium 800; EFcm 752—Enterococcus faecium 752 (VRE, Van A); SPNE 1195—Streptococcus pneumoniae 1195 (ATCC 49619); SPY 712—Streptococcus pyogenes 712.

[2] = system: Staphylococcus aureus 757 (MRSA); assay: MIC, broth microdilution, SA 757; details: read-out: MIC SA 757
Procedure: as §1

[3] = system: Staphylococcus aureus 2012 (VISA); assay: MIC, broth microdilution, SA 2012; details: read-out: MIC SA 2012
Procedure: as §1

[4] = system: Staphylococcus epidermidis 835; assay: MIC, broth microdilution, SE 835; details: Staphylococcus epidermidis, 835, class symbols, read-out: MIC SE 835
Procedure: as §1

[5] = system: Staphylococcus epidermidis 831 (MRSE); assay: MIC, broth microdilution, SE 831; details: Staphylococcus epidermidis, read-out: MIC SE 831
Procedure: as §1

[6] = system: Enterococcus faecalis 101 (ATCC 29212); assay: MIC, broth microdilution, EFc 101; details: Enterococcus faecalis, ATCC29212, class symbols, read-out: MIC E FC 101
Procedure: as §1

[7] = system: Enterococcus faecalis 848 (VRE, Van A); assay: MIC, broth microdilution, EFc 848; details: VRE, Van A, class symbols, read-out: MIC E FC 848
Procedure: as §1

Enterococcus faecium 800 = assay: MIC, broth microdilution, EFcm 800; details: Enterococcus faecium, 800, class symbols, read-out: MIC E FCM 800
Procedure: as §1

[8] = system: Enterococcus faecium 752 (VRE, Van A); assay: MIC, broth microdilution, EFcm 752; details: VRE, Van A, class symbols, read-out: MIC E FCM 752
Procedure: as §1

[9] = system: Streptococcus pneumoniae 1195 (ATCC 49619); assay: MIC, broth microdilution, SPNE 1195; details: Streptococcus pneumoniae, ATCC49619, class symbols, read-out: MIC S PNE 1195
Procedure: as §1

[10] = system: Streptococcus pyogenes 712; assay: MIC, broth microdilution, SPY 712; details: Streptococcus pyogenes, 712, class symbols, read-out: MIC S PYO 712
Procedure: as §1

[11] = Table 2, in the presence of 0.002% Polysorbate 80
[12] = Table 2, in the presence of 0.002% Polysorbate 80, class symbols

MIC ([1]; Table 1) [mg/L]	MIC ([2]; Table 1, class symbols) [mg/L]	MIC ([3]; Table 1, class symbols) [mg/L]	MIC ([4]; Table 1) [mg/L]	MIC ([5]; Table 1, class symbols) [mg/L]	MIC ([6]; Table 1) [mg/L]	MIC ([7]; Table 1) [mg/L]	MIC (Enterococcus faecium 800; Table 1) [mg/L]	MIC ([8]; Table 1) [mg/L]	MIC ([9]; Table 1) [mg/L]	MIC ([10]; Table 1) [mg/L]	Structure (SMILES)	also measured
2 to 4 (≈ 1.19 to 2.38 µM)	1 to 2 (≈ 0.595 to 1.19 µM)	> 16	1 to 2 (≈ 0.595 to 1.19 µM)	1 to 2 (≈ 0.595 to 1.19 µM)	0.5 to 1 (≈ 0.298 to 0.595 µM)	2 to 4 (≈ 1.19 to 2.38 µM)	0.01 to 0.5 (≈ 0.00595 to 0.298 µM)	1 to 2 (≈ 0.595 to 1.19 µM)	0.01 to 0.5 (≈ 0.00595 to 0.298 µM)	0.01 to 0.5 (≈ 0.00595 to 0.298 µM)	CCCCCCOc1ccc(S(=O)(=O)NC(=O)C[C@@H]2NC(=O)[C@H](NC(=O)[C@@H](CC(C)C)NC)[C@H](O)c3ccc(c(Cl)c3)Oc3cc4cc(c3O[C@@H]3O[C@H](CO)[C@@H](O)[C@H](O)[C@H]3O)Oc3ccc(cc3Cl)[C@@H](O)[C@@H]3NC(=O)[C@H](NC(=O)[C@@H]4NC2=O)c2ccc(O)c(c2)-c2c(O)cc(O)cc2[C@@H](C(=O)NC2C4CC5CC(C4)CC2C5)NC3=O)cc1 (stereo partly drawn) [Compound 118]	–
0.01 to 0.5 (≈ 0.00605 to 0.303 µM)	0.01 to 0.5 (≈ 0.00605 to 0.303 µM)	0.01 to 0.5 (≈ 0.00605 to 0.303 µM)	0.01 to 0.5 (≈ 0.00605 to 0.303 µM)	0.01 to 0.5 (≈ 0.00605 to 0.303 µM)	0.01 to 0.5 (≈ 0.00605 to 0.303 µM)	1 to 2 (≈ 0.605 to 1.21 µM)	0.01 to 0.5 (≈ 0.00605 to 0.303 µM)	0.01 to 0.5 (≈ 0.00605 to 0.303 µM)	0.01 to 0.5 (≈ 0.00605 to 0.303 µM)	0.01 to 0.5 (≈ 0.00605 to 0.303 µM)	CN[C@H](CC(C)C)C(=O)N[C@H]1C(=O)N[C@@H](CC(=O)NS(=O)(=O)c2ccc(OCCOC)cc2)C(=O)N[C@H]2C(=O)N[C@H]3C(=O)N[C@H](C(=O)N[C@H](C(=O)NC4C5CC6CC(C5)CC4C6)c4cc(O)cc(O)c4-c4cc3ccc4O)[C@H](O)c3ccc(c(Cl)c3)Oc3cc2cc(c3O[C@@H]2O[C@H](CN)[C@@H](O)[C@H](O)[C@H]2O)Oc2ccc(cc2Cl)[C@H]1O (stereo partly drawn) [Compound 101]	–
–	–	–	–	–	–	–	–	–	–	–	CN[C@H](CC(C)C)C(=O)N[C@H]1C(=O)N[C@@H](CC(=O)NC(=O)c2ccc(OCCN)c(OCCN)c2)C(=O)N[C@H]2C(=O)N[C@H]3C(=O)N[C@H](C(=O)N[C@H](C(=O)NC4C5CC6CC(C5)CC4C6)c4cc(O)cc(O)c4-c4cc3ccc4O)[C@H](O)c3ccc(c(Cl)c3)Oc3cc2cc(c3O[C@@H]2O[C@H](CO)[C@@H](O)[C@H](O)[C@H]2O)Oc2ccc(cc2Cl)[C@H]1O (stereo partly drawn) [Compound 159]	MIC [1, 11]: 0.5 to 1 mg/L; MIC [2, 12]: 0.5 to 1 mg/L; MIC [3, 12]: 0.5 to 1 mg/L; MIC [4, 11]: 0.5 to 1 mg/L; MIC [5, 12]: 0.01 to 0.5 mg/L; MIC [6, 11]: 0.5 to 1 mg/L; MIC [7, 11]: > 16 mg/L; MIC (Enterococcus faecium 800; [11]): 0.01 to 0.5 mg/L; MIC [8, 11]: 4 to 8 mg/L; MIC [9, 11]: 0.5 to 1 mg/L; MIC [10, 11]: 0.01 to 0.5 mg/L

From patent US20120252741A1, “NOVEL SEMI-SYNTHETIC GLYCOPEPTIDES AS ANTIBACTERIAL AGENTS” (priority 2008, published 2012)
